Test results taken from paper PMC11425263, “Otilonium Bromide Exhibits Potent Antifungal Effects by Blocking Ergosterol Plasma Membrane Localization and Triggering Cytotoxic Autophagy in Candida Albicans” (Advanced Science, 2024).

Target: T1, Sec31 (Candida albicans, UniProt Q5AAU3)
T1 construct: gene PGA63; full-length with N-terminal GFP tag, expressed in C. albicans, tested in whole cell lysate; COPII coat component
T1 sequence (Q5AAU3 1-1265): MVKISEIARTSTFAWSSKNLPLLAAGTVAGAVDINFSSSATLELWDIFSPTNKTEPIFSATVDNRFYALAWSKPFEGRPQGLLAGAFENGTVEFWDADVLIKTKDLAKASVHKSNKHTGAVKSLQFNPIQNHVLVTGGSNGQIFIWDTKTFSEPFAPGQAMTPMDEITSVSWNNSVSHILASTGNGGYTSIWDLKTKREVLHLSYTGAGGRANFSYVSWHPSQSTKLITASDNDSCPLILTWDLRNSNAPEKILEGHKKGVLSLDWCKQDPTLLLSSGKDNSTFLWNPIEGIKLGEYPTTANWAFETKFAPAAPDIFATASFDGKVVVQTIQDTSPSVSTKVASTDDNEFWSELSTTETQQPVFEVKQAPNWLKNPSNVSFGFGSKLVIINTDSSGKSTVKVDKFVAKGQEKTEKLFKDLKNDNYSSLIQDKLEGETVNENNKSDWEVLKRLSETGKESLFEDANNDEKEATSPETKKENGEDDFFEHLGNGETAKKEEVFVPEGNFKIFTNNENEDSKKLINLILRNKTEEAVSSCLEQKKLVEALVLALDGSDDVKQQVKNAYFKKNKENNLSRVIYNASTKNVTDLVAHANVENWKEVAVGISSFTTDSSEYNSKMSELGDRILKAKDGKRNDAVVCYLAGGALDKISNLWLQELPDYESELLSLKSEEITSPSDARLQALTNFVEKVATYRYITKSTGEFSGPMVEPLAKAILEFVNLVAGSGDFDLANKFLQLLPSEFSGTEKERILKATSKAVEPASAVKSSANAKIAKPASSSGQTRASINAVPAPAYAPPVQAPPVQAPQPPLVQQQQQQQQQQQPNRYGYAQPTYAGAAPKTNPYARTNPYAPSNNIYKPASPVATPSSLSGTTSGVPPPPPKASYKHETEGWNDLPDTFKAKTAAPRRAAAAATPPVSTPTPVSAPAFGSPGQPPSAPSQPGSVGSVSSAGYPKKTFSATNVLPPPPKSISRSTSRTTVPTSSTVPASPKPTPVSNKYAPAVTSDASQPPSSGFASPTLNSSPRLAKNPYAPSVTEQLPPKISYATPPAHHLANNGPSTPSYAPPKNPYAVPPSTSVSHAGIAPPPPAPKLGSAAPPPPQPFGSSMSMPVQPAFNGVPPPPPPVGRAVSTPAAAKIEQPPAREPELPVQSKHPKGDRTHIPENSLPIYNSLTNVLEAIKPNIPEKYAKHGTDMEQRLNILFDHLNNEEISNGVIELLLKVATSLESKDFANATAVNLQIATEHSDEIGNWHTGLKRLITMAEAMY
Assay: DARTS, thermolysin protection, anti-GFP western blot
Type: biochemical
Conditions: GFP-Sec31 cell lysate; OTB 3.125 to 12.5 µg/mL, 1 h room temperature; thermolysin 15 min; beta-tubulin as control

CCCCCCCCOc1ccccc1C(=O)Nc1ccc(C(=O)OCC[N+](C)(CC)CC)cc1 [otilonium bromide]
DARTS, thermolysin protection, anti-GFP western blot: OTB effectively shielded Sec31 from degradation induced by thermolysin
